According to publication PMC4515429, “Anti-Biofilm and Immunomodulatory Activities of Peptides That Inhibit Biofilms Formed by Pathogens Isolated from Cystic Fibrosis Patients” (Antibiotics, 2014):
Where no end group is shown, it is not given here.

Legend:
[1] = test system: monocyte chemotactic protein-1 (MCP-1) production by human peripheral blood mononuclear cells; experiment: MCP-1 induction in PBMCs, sandwich ELISA; format: cell-based; conditions: 24 h; for level of MCP-1 induction at 100 µg/mL: 100 µg/mL peptide; for MCP-1 induction: 20 and 100 µg/mL peptide, cf. untreated control
Method: (§1) (A) Human peripheral blood mononuclear cells were subjected to 20 µg/mL and 100 µg/mL of HE1, HE4, HE10, HE12, and 1018 for 24 h. Monocyte chemotactic protein-1 (MCP-1) production was assessed using sandwich enzyme linked immunosorbent assay (ELISA). The level of MCP-1 induction was similar for HE1, HE4, HE10, and 1018 at 100 µg/mL; (B) LPS (20 ng/mL) was co-administered with 20 µg/mL of each of the aforementioned peptides for 24 h. The tumor necrosis factor-alpha (TNF-α) production in response to both stimulants was assessed using enzyme linked immunosorbent assay (ELISA) and compared to lipopolysaccharides (LPS) alone. […] Lactate dehydrogenase release from peripheral blood mononuclear cells (PBMCs) was measured to assess the toxicity of 20 µg/mL and 100 µg/mL of 1018 and its derivatives.
These studies were done as described previously. Briefly, human peripheral blood mononuclear cells (PBMCs) were isolated from the blood of healthy individuals obtained under University of British Columbia (UBC) human ethics approval. PBMCs were diluted to 2 × 10^6 cells/ml in RPMI-1640 medium (Gibco®, Grand Island, NY, USA) supplemented with 10% fetal bovine serum (FBS). Subsequently, 250 µL of cells were seeded in each well of a 48-well dish. […] To assess chemokine induction after 24 h, the levels of chemokine MCP-1 (CCL2) were assessed in the supernatants three times independently using a sandwich ELISA kit (BioSource International, Grand Island, NY, USA). To look at the anti-inflammatory activity of the peptides in suppressing LPS-induced TNFα, P. aeruginosa LPS was added at a final concentration of 20 ng/mL as well as peptides at 20 μg/mL or 100 μg/mL. Secretion of TNF-α was monitored by capture ELISA (eBiosciences, San Diego, CA, USA) after 24 h.

[2] = test system: P. aeruginosa PA14; experiment: Anti-biofilm activity, BioFlux apparatus; format: cell-based, Pseudomonas aeruginosa; conditions: 15 µg/mL peptide
[3] = test system: P. aeruginosa PA14; experiment: Flow cell biofilm assay, confocal microscopy; format: cell-based, Pseudomonas aeruginosa; conditions: 72 h, 37 °C, inhibition and eradication conditions, Syto-9/PI confocal imaging
Method: For biofilm prevention conditions, the peptides were added to the medium from the beginning of the experiment. For eradication experiments, bacteria were allowed to develop structured 2-day-old biofilms prior to peptide and antibiotics treatment for the following 24 h.
Biofilms were grown for 72 h, in the absence or presence of the desired concentration of the different peptides, at 37 °C in flow chambers with channel dimensions of 1 by 4 by 40 mm, and then stained and examined by confocal microscopy, as described previously. For biofilm prevention studies the peptide was present in the flow-through medium throughout the biofilm growth while for eradication experiments, biofilms were allowed to grow for 2 days, before treating them with peptide for the last 24 h of the experiment.

[4] = test system: methicillin resistant Staphylococcus aureus (MRSA); experiment: Biofilm inhibition in 96-well plates, static conditions; format: cell-based; conditions: polypropylene microtiter plates, BM2, 24 h, 37 °C, crystal violet, absorbance 595 nm
Method: Figure 3 Biofilm inhibitory activity against methicillin resistant Staphylococcus aureus (MRSA) in 96-well plates. […] Statistical significance was assessed using one-way ANOVA (*, p < 0.05; ***, p < 0.001; ****, p < 0.0001).

[5] = test system: TNF-α production by human peripheral blood mononuclear cells; experiment: LPS-induced TNF-α production in PBMCs, ELISA; format: cell-based; conditions: LPS-stimulated PBMCs, Figure 4B
Method: as §1
These studies were done as described previously. Briefly, human peripheral blood mononuclear cells (PBMCs) were isolated from the blood of healthy individuals obtained under University of British Columbia (UBC) human ethics approval. […] To assess chemokine induction after 24 h, the levels of chemokine MCP-1 (CCL2) were assessed in the supernatants three times independently using a sandwich ELISA kit (BioSource International, Grand Island, NY, USA). […] Secretion of TNF-α was monitored by capture ELISA (eBiosciences, San Diego, CA, USA) after 24 h.

[6] = test system: B. cenocepacia 4813; experiment: Anti-biofilm activity of 1018 derivatives (Table 4); format: cell-based, Burkholderia cenocepacia; conditions: 15 µg/mL peptide
Method: Biofilm formation was initially analyzed using a static abiotic solid surface assay as described elsewhere [21]. Dilutions (1/100) of overnight cultures were incubated in BM2 glucose medium (62 mM potassium phosphate buffer (pH 7), 7 mM (NH4)2SO4, 2 mM MgSO4, 10 μM FeSO4, 0.4% (wt/vol) glucose, 0.5% (wt/vol) Casamino Acids) in polypropylene microtiter plates (Fisher Scientific, Waltham, MA, USA) in the presence of the different peptides for 22 h at 37 °C. Planktonic cells were removed and biofilm cells adhering to the side of the tubes were stained with crystal violet, extracted into ethanol, and the optical density at 595 nm (OD595) measured using a microtiter plate reader (Bio-Tek Instruments Inc., Winooski, VT, USA). Peptides were added at time zero (prior to adding the diluted, overnight cultures) at various concentrations, and the decrease in biofilm formation was recorded at 22 h for P. aeruginosa, Burkholderia and Methicillin-resistant Staphylococcus aureus isolates.

[7] = test system: P. aeruginosa PA14; conditions: PA14, 18 h
Method: In addition to the wild type lab isolates Pseudomonas aeruginosa strains PAO1 and PA14, a variety of cystic fibrosis clinical isolates of P. aeruginosa and Burkholderia cepacia complex strains were utilized (Table 1). Planktonic cells from each of the P. aeruginosa and B. cepacia strains were grown in BM2 glucose or cation-adjusted Mueller-Hinton. The minimal inhibitory concentration (MIC) for peptides in brain-heart infusion (BHI) was assessed by the broth microdilution method with minor modifications for cationic peptides. […] MIC assays were performed in sterile 96-well polypropylene microtiter plates. […] The plates were incubated at 37 °C for 18 h.

Substance | level of MCP-1 induction at 100 µg/mL [1] | MCP-1 induction [1] | Anti-Biofilm Activity (% Decrease in Biofilm) [2] [%] | Anti-Biofilm Activity (% Decrease in Biofilm) [6] [%] | further results
RRWIRVAVILRV [HE1] | similar | significantly induced MCP-1 | 93 |  | 
VRLI--VRIWRR [HE10, 1018 derivative, truncated to remove hydrophobic patch] | similar | significantly induced MCP-1 |  |  | anti-biofilm activity in flow cells [3]: strong anti-biofilm activity comparable with that of 1018; biofilm inhibitory activity against MRSA compared to 1018 [4]: notably more active; suppression of TNF-α production [5]: strongly suppressing the production of TNF-α
VRLIRAVRAWRV [HE2, 1018 derivative, break hydrophobicity; maintain charge] |  |  | 42 | 24 | 
VRLIWAVRIWRR [HE4] |  |  |  |  | MIC [7]: 80 µg/mL
VRWARVARILRV [HE3, 1018 derivative, reverse of HE2] |  |  | 31 | 21 | 
